Reference: ChEMBL document CHEMBL1201862, “PubChem BioAssay data set” (2004)
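Five concentrations, 48 hours, 96-well plates. The concentration for 50% growth inhibition is given as GI50.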 The source made the active and inactive calls. Rule as the data show it: active = GI50 up to about 1.1 µM and inactive = higher.

Columns and labels:
Assay in all cases: NCI-60 cell line screen, 48 h
[1] = tested on: LXFL 529
[2] = tested on: XF498
[3] = tested on: HOP-18
[4] = tested on: DLD-1
[5] = tested on: RXF 631
[6] = tested on: SNB-78
[7] = tested on: M19-MEL
[8] = tested on: DMS-273
[9] = tested on: KM-20L2

| SMILES | GI50 [1] | GI50 [2] | GI50 [3] | GI50 [4] | GI50 [5] | GI50 [6] | GI50 [7] | GI50 [8] | GI50 [9] |
| --- | --- | --- | --- | --- | --- | --- | --- | --- | --- |
| CCCCCCCCCCCCCCCc1nnc(SCC(=O)O)[nH]1 | 22.8 µM (inactive) | 65.8 µM (inactive) | > 100 µM (inactive) | 23.4 µM (inactive) | 19.6 µM (inactive) | > 100 µM (inactive) | – | – | – |
| COC(=O)Cc1c([C@@]2(C)CCCC(C)(C)C2)ccc2c1C(=O)OC2 | 7.29 µM (inactive) | – | 18.3 µM (inactive) | 3.62 µM (inactive) | 12.9 µM (inactive) | 14.9 µM (inactive) | 15.1 µM (inactive) | 5.43 µM (inactive) | – |
| C=C1C(C)C2C(Cc3ccccc3)NC(=O)C23C(OC(C)=O)C=CC(C)(O)C(=O)C(C)C/C=C/C3C1O (stereo not given) | 3.14 µM (inactive) | 2.01 µM (inactive) | – | 0.78 µM (active) | 0.117 µM (active) | 0.116 µM (active) | 16.1 µM (inactive) | 1.96 µM (inactive) | 0.158 µM (active) |
| COc1ccc(C[C@]23CCC(=O)N2CCc2cc(OC)c(O)cc23)cc1O | > 100 µM (inactive) | – | > 100 µM (inactive) | – | > 100 µM (inactive) | > 100 µM (inactive) | > 100 µM (inactive) | > 100 µM (inactive) | > 100 µM (inactive) |
| CCCCc1c2c(nc3c1CC/C(=C\c1ccccc1)C3=O)CCCC2 | 1.74 µM (inactive) | – | – | 3.38 µM (inactive) | – | 2.99 µM (inactive) | 4.72 µM (inactive) | 2.59 µM (inactive) | 3.59 µM (inactive) |
| COc1cc2c(cc1O)C=NCC2 | > 100 µM (inactive) | > 100 µM (inactive) | – | > 100 µM (inactive) | – | > 100 µM (inactive) | > 100 µM (inactive) | > 100 µM (inactive) | > 100 µM (inactive) |
| CC1(C)C(=O)C(C)(C)C1=NN | > 100 µM (inactive) | > 100 µM (inactive) | – | > 100 µM (inactive) | – | > 100 µM (inactive) | > 100 µM (inactive) | > 100 µM (inactive) | > 100 µM (inactive) |
| CC(=O)C1Cn2c(=O)c3cc4ccccc4cc3c(=O)n2C=C1C (stereo not given) | 83.4 µM (inactive) | > 100 µM (inactive) | – | > 100 µM (inactive) | > 100 µM (inactive) | > 100 µM (inactive) | > 100 µM (inactive) | > 100 µM (inactive) | > 100 µM (inactive) |
| CCSC(SCC)=C1C(=O)N(c2ccccc2)N=C1C | 10 µM (inactive) | 10.6 µM (inactive) | 13.2 µM (inactive) | 11.8 µM (inactive) | – | 18.6 µM (inactive) | 0.378 µM (active) | 16.1 µM (inactive) | 16.8 µM (inactive) |
| COc1cccc(NC(=O)CSc2nnc(-c3ccc(NC(C)=O)cc3)o2)c1 | > 100 µM (inactive) | – | 14 µM (inactive) | > 100 µM (inactive) | – | > 100 µM (inactive) | > 100 µM (inactive) | > 100 µM (inactive) | 94.6 µM (inactive) |
| N#C/C(=C(/S)Nc1ccccc1)c1nc2ccccc2[nH]1 | > 10 µM (inactive) | > 10 µM (inactive) | > 10 µM (inactive) | > 10 µM (inactive) | – | – | > 10 µM (inactive) | > 10 µM (inactive) | > 10 µM (inactive) |
| Cc1cc(C=O)c2c(=O)c3c(O)ccc(/C=C/C(C)C)c3oc2c1 | 43.4 µM (inactive) | – | – | 70.1 µM (inactive) | – | – | 36.7 µM (inactive) | 48.3 µM (inactive) | > 100 µM (inactive) |
| Cc1ccc(S(=O)(=O)Nc2cccc3c(=O)nc[nH]c23)cc1 | > 86.7 µM (inactive) | > 100 µM (inactive) | 53 µM (inactive) | – | – | > 100 µM (inactive) | > 100 µM (inactive) | > 100 µM (inactive) | > 100 µM (inactive) |
| CC(=O)c1ccc2c(ccc(=O)n2C)c1 | > 100 µM (inactive) | > 100 µM (inactive) | > 100 µM (inactive) | > 100 µM (inactive) | – | – | > 100 µM (inactive) | > 100 µM (inactive) | > 100 µM (inactive) |
| NC1=NN(c2ccccc2)C(=O)C1/C(=N\NC(=O)c1cc2ccccc2cc1O)C(=O)Nc1cccc(C(F)(F)F)c1 (stereo not given) | 39.3 µM (inactive) | 64.9 µM (inactive) | 21.2 µM (inactive) | 36.6 µM (inactive) | – | 44 µM (inactive) | 35.2 µM (inactive) | – | 32.6 µM (inactive) |
| CCN(c1ccccc1)[C@H]1C(=O)N(c2ccc([N+](=O)[O-])cc2)[C@H]1c1ccc(OC)cc1 | > 100 µM (inactive) | – | – | > 100 µM (inactive) | 35.8 µM (inactive) | > 100 µM (inactive) | 61.7 µM (inactive) | > 100 µM (inactive) | – |
| CC(C)C(=O)/C=C/c1ccc(Cl)cc1 | 14.9 µM (inactive) | 7.78 µM (inactive) | 4.9 µM (inactive) | 11.9 µM (inactive) | – | – | 14.4 µM (inactive) | 3.99 µM (inactive) | 26.2 µM (inactive) |
| CC1(O)CCC2(C)C(=O)C1(C)CCC21OCCO1 (stereo not given) | > 100 µM (inactive) | > 100 µM (inactive) | > 100 µM (inactive) | > 100 µM (inactive) | – | – | > 100 µM (inactive) | > 100 µM (inactive) | – |
| O=[N+]([O-])c1ccc(C[P+]2(c3ccccc3)CCCCC2)cc1.[O-][Cl+3]([O-])([O-])[O-] | 97.7 µM (inactive) | < 0.01 µM (active) | > 100 µM (inactive) | > 100 µM (inactive) | – | – | – | > 100 µM (inactive) | > 100 µM (inactive) |
| CCOP1(=O)C=CC(Cl)=C(C)C1 (stereo not given) | 12.4 µM (inactive) | 19 µM (inactive) | 17.4 µM (inactive) | 6.97 µM (inactive) | – | 18.9 µM (inactive) | 21.6 µM (inactive) | – | 16.9 µM (inactive) |
| Cc1ccc(NC(=O)CC/C(CC(=O)c2ccc(Cl)cc2)=N\NC(=O)C(=O)NN)cc1C | > 100 µM (inactive) | > 100 µM (inactive) | > 100 µM (inactive) | > 100 µM (inactive) | – | > 100 µM (inactive) | > 100 µM (inactive) | > 100 µM (inactive) | > 100 µM (inactive) |
| COc1cc(C2c3cc4c(cc3[C@@H](N(C)c3ccc(N(C)C)cc3)C3COC(=O)C23)OCO4)cc(OC)c1O (stereo not given in full) | 0.312 µM (active) | 0.286 µM (active) | 13.4 µM (inactive) | 0.443 µM (active) | 0.357 µM (active) | – | 0.721 µM (active) | 0.291 µM (active) | 0.21 µM (active) |
| CCOC(=O)C(Cc1ccc(N=NN(C)C)cc1)NC(=O)CC1c2ccccc2-c2ccccc21 (stereo not given) | 50.5 µM (inactive) | – | – | 48.1 µM (inactive) | – | – | 49.3 µM (inactive) | 55.3 µM (inactive) | – |
| COc1ccc(CNc2cc(OC)cc(OC)c2)cc1 | 49.3 µM (inactive) | 63.5 µM (inactive) | – | – | – | 29.6 µM (inactive) | 72.3 µM (inactive) | – | – |
| CCOc1ccc(NCc2cc(OC)c(OC)c(OC)c2)cc1 | – | – | – | 0.807 µM (active) | – | – | – | – | 0.333 µM (active) |
| CCOC(=O)NC1=C(N2CC2)C(=O)C(NC(=O)OCC)=C(N2CC2)C1=O [DIAZIQUONE] | 4.92 µM (inactive) | 3.67 µM (inactive) | 6.35 µM (inactive) | 7.38 µM (inactive) | – | 7.36 µM (inactive) | 5.38 µM (inactive) | 0.596 µM (active) | 6.93 µM (inactive) |
